Laboratory results as given in patent US9163010B2, “Indolinone protein kinase inhibitors” (Beta Pharma, Inc., priority 2011, dated 2015).

How the values were obtained:
VEGFR-1 (Flt-1) = VEGFR-1 (Flt-1) (Homo sapiens (Human), UniProt P17948); assay: Enzymatic activity, VEGFR-1 inhibition in vitro; assay type: biochemical; settings: read-out: Enzymatic Activities IC50 VEGFR-1 (Flt-1) or VGFR1 FLT1
VEGFR-3 (Flt-4) = VEGFR-3 (Flt-4) (Homo sapiens (Human), UniProt P35916); assay: Enzymatic activity, VEGFR-3 inhibition in vitro; assay type: biochemical
Chain of VEGFR-3 (Flt-4) (P35916 25-1363): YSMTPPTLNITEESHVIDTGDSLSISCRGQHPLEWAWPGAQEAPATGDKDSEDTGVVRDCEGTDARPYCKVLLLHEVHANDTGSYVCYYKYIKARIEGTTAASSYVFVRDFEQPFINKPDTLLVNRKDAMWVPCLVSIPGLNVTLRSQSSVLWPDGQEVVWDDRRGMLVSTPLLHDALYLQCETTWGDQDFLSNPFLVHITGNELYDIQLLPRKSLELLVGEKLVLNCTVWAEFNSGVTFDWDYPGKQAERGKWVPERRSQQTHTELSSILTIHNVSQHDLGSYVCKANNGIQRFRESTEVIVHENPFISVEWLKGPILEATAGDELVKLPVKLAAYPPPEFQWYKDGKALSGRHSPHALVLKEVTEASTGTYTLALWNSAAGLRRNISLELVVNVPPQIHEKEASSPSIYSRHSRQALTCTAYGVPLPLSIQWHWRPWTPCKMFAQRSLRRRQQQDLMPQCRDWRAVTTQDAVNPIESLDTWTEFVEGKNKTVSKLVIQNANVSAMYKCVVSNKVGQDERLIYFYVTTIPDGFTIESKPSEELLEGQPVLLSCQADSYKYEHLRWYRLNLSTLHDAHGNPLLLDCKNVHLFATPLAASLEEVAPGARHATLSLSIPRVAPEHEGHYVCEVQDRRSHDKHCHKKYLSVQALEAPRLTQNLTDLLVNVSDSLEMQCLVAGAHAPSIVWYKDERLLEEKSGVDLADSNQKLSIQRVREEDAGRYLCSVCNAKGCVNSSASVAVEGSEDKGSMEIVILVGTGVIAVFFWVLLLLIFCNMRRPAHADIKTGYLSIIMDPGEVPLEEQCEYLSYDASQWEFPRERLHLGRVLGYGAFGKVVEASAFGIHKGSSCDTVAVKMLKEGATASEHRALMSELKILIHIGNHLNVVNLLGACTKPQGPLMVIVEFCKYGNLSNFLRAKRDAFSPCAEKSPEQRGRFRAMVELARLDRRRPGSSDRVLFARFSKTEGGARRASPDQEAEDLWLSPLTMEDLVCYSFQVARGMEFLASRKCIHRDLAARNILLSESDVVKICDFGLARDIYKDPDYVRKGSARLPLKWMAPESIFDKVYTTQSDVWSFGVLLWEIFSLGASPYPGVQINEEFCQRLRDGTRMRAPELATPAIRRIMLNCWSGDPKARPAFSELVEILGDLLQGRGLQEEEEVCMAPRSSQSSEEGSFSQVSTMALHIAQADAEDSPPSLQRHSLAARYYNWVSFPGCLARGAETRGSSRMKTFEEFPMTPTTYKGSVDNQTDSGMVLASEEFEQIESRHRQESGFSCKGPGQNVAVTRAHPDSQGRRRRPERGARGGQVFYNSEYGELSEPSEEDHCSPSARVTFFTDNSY

VEGFR-2 KDR = VEGFR-2 KDR (Homo sapiens (Human), UniProt P35968); assay: Enzymatic activity, VEGFR-2 inhibition in vitro; assay type: biochemical; settings: read-out: Enzymatic Activities IC50 VEGFR-2 KDR or VGFR2 KDR
Chain of VEGFR-2 KDR (P35968 20-1356): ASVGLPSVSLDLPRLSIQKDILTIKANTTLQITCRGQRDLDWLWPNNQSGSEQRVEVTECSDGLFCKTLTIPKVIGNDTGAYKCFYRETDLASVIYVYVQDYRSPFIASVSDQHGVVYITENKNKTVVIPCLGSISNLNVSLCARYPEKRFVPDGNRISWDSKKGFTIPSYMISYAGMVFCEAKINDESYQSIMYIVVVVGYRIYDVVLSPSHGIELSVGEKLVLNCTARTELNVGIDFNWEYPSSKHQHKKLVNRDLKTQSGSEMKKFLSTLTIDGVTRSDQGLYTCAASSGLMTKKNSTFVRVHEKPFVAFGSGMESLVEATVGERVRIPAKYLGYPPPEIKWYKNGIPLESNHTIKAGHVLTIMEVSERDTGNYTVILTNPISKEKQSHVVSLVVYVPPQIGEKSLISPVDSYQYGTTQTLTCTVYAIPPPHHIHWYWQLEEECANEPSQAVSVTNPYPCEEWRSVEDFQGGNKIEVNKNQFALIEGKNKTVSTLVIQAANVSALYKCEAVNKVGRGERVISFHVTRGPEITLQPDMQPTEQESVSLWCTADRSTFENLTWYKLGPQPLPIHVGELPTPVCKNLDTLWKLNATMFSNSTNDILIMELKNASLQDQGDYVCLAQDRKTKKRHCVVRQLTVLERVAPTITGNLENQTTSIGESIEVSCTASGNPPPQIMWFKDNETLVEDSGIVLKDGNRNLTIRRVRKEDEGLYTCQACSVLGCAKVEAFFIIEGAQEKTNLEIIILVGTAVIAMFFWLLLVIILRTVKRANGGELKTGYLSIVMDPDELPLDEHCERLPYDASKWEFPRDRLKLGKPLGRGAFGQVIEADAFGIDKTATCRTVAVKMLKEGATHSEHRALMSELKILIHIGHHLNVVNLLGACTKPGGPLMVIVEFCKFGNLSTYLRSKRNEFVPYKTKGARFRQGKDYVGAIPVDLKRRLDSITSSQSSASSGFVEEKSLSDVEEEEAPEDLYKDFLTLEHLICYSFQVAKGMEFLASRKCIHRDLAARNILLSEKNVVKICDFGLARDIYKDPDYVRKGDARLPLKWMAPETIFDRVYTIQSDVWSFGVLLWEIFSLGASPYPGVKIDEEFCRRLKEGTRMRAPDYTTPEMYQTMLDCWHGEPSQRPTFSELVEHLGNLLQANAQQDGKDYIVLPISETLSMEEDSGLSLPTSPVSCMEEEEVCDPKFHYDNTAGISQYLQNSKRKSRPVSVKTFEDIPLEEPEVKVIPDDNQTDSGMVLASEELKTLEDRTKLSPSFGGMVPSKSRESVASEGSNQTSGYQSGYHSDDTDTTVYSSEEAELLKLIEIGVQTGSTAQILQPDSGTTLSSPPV

[1] = cited from earlier work

Chain of VEGFR-1 (Flt-1) (P17948 27-1338): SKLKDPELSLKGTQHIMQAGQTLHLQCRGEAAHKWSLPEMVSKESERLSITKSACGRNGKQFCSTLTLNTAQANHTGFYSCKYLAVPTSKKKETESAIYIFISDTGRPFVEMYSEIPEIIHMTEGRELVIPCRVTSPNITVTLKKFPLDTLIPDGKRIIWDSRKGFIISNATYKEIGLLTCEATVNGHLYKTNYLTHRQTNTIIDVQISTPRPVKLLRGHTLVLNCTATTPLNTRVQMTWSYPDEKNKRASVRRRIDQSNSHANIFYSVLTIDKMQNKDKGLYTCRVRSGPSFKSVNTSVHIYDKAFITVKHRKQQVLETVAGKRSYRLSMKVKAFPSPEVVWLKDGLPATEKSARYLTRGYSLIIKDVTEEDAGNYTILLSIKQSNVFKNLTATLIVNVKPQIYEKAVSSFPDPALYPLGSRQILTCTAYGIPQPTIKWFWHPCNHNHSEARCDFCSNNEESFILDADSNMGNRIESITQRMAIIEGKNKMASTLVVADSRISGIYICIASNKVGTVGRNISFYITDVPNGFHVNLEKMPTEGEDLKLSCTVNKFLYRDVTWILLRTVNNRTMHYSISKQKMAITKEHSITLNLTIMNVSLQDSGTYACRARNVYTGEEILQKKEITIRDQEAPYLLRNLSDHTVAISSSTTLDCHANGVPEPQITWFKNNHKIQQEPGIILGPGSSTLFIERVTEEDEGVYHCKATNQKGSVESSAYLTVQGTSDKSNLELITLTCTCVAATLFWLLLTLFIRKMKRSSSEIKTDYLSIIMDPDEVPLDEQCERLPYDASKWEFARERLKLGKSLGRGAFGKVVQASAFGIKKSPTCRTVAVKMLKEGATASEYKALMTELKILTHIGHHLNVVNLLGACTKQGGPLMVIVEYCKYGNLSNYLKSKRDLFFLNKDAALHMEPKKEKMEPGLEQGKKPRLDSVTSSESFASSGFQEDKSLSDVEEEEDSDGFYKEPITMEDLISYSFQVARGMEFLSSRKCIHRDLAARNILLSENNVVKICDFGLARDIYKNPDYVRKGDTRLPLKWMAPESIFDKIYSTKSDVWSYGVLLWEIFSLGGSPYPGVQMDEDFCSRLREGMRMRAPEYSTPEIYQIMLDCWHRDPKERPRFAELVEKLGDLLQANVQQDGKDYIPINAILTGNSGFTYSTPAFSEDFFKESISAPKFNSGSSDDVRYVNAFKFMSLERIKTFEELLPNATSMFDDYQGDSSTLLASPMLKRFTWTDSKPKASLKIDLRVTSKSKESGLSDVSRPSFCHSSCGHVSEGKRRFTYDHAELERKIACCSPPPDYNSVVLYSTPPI

IC50 (VEGFR-1 (Flt-1))	Enzymatic Activities IC50 VEGFR-3 (Flt-4) or VGFR3 FLT4 (VEGFR-3 (Flt-4))	IC50 (VEGFR-2 KDR)	SMILES	Patients in whom dose reductions were required to manage toxicities ([1]; patients studied in RCC)	Serious (grade 3 or 4) adverse events, share of patients ([1]; sunitinib therapy, patients)
40 nM	No Inhibition	2.5 nM	Cc1[nH]c(/C=C2\C(=O)Nc3ccc(F)cc32)c(C)c1C(=O)N1CCOCCOCCOCC1 [Formula II]		
			CCN(CC)CCNC(=O)c1c(C)[nH]c(/C=C2\C(=O)Nc3ccc(F)cc32)c1C [Sunitinib, sunitinib]	50%	up to 10%
